Measured values reported in patent US9096835B2, “DNA polymerase” (Medical Research Council, priority 2003, dated 2015).

Key:
Assay type in all cases: biochemical
[1] = test system: template containing 5-Nitroindole; experiment: Primer extension opposite 5-nitroindole; settings: 50° C., cell lysate, identical conditions as 4D11 and 5D4; data not shown
Experimental: 50 pmol of ^32P-labelled primer and 100 pmol of template in a volume of 44 μl were annealed in 1× Taq buffer. 4D11 or 5D4 polymerase as cell lysate (6 μl) was added and reactions were incubated at 50° C. for 15 minutes followed by addition of one dNTP (1 μl in total volume of 50 μl, final dNTP concentration 40 μM). 8 μl samples were taken at various time points and added to 8 μl stop solution (7M urea, 100 mM EDTA containing xylene cyanol F). At the end of the time course the remaining 3 dNTPs were added (final concentration each dNTP 40 μM) and reactions incubated at 50° C. for a further 30 minutes. Reaction samples were electrophoretically separated using 20% polyacrylamide gels at 25 W for 4 hours. The resultant gels were dried and scanned using a phosphorimager (Molecular Dynamics). Data was processed using the program ImageQuant (Molecular Dynamics).

phage λ DNA template = experiment: Long PCR; settings: standard PCR conditions, no auxiliary polymerases or processivity factors
Experimental: A PCR assay was used to screen and rank clones. Briefly, clones were normalized for activity in PCR with matched primers 3, 4 and activity with mismatched primers 1 and 2 (1 μM each) determined at minimal cycle number (15-25 cycles). Extension capability for different mismatches was determined by the same assay using mismatch primers 2 (C•C mismatch), 5 (A•A mismatch), 6 (G•G mismatch), 7 (G•A mismatch) with matched primer 3 or primer 1 (A•G mismatch) with matched primer 4. Incorporation of unnatural substrates in 50 cycle PCR was carried out using standard conditions and 50 μM […] dNTPs (Promega) or 50 μM FITC-12-dATP (Perkin-Elmer), Rhodamine-5-dUTP (Perkin-Elmer) or Biotin-16-dUTP (Roche) with equivalent amounts of the other 3 dNTPs (all 50 μM). Long PCR was carried out using a two-step cycling protocol as described (22) 94° C. for 2 minutes, followed by 20 cycles of (94° C. 15 sec, 68° C. 30 min) using 5 ng of phage λ DNA (New England Biolabs) template and either primers 9, 10, 11 with primer 12 or primer 13 with primers 10, 14.

[2] = Incorporation and extension of 5-nitroindole-5′-triphosphate; settings: 50° C., identical conditions as 4D11 and 5D4; data not shown
Experimental: 50 pmol of ^32P-labelled primer and 100 pmol of template in a volume of 44 μl were annealed in 1× Taq buffer. 4D11 or 5D4 polymerase as cell lysate (6 μl) was added and reactions were incubated at 50° C. for 15 minutes followed by addition of d5NITP (1 μl in total volume of 50 µL final dNTP concentration 40 μM). 8 μl samples were taken at various time points and added to 8 μl stop solution (7M urea, 100 mM EDTA containing xylene cyanol F). At the end of the time course the 4 native dNTPs were added (final concentration each dNTP 40 μM) and reactions incubated at 50° C. for a further 30 minutes.

four mismatch primers = experiment: PCR screen of clones with four mismatch primers; settings: 292 base pair product, 50 cycles of PCR
Experimental: The resultant clones from both CSR and CST were screened and ranked by PCR assay. Briefly, 2 μl of induced cells were added to 20 μl of PCR mix with the relevant 4 mismatch primers. Clones that produced a band were then subjected to further analysis and their activity on single, double and quadruple mismatch primers (single mismatch primers: 5′-CAGGAAACAGCTATGACAAAAATCTAGATAACGAGGGA-3′ (SEQ ID NO: 48) and 5′-GTAAAACGACGGCCAGTACCACCGAACTGCGGGTGACGCCAAGCC 3′ (SEQ ID NO: 49); double mismatch primers: CAGGAAACAGCTATGACTCGACAAAAATCTAGATAACGACC (SEQ ID NO: 50) and GTAAAACGACGGCCAGTTTATTAACCACCGAACTGC (SEQ ID NO: 51); four mismatch primers above.) was investigated. Polymerases that could extend all of these mismatches were found, though many polymerases could do only one of the mismatches and […].
The best first and second round clones were shuffled as described above and subjected to another round of CSR. The same two sets of mismatch primers with four mismatches at their 3′ end were used in the emulsion as two separate sources of selective pressure. This was then dealt with as above and the resultant clones were screened and ranked by PCR assay (as above). Once again, polymerases that could extend all of these mismatches were found. In particular, clones 3B5.

[3] = Catalytic efficiency kcat/Km

In the case of “wtTaq: Thermus aquaticus (Taq) wild type DNA polymerase [reference compound]”, the “extension opposite 5-nitroindole” value [1] is reported as “almost undetectable extension reactions”, the “size of targets amplified in long PCR” value (phage λ DNA template) is reported as at most 9 kb and the “size of targets amplified in long PCR” value (phage λ DNA template; listed as WtTaq) is reported as at most 8.8 kb. For the same molecule, the “incorporation and extension of d5NITP” value [2] was “almost undetectable extension reactions”.

B1: 3A10: third round clone, abasic site bypass; SEQ ID NO: 86 (protein)
chain: MAMLPLFEPKGRVLLVDGHHLAYRTFFALKGLTTSRGEPVQVVYGFAKSLLKALKEDGYKAVFVVFDAKAPSFRHKAYEAYRAGRAPTPQDFPRQLALIKELVDLLGFTRLEVPGYEADDVLATLAKKAEKEGYEVRILTADRGLYQLVSDRVAVLHPEGHLITPEWLWEKYGLRPEQWVDFRALVGDPSDNLPGVKGIGEKTALKLLKEWGSLENLLKNLDRVKPENVREKIKAHLEDLRLSLELSRVRTDLPLEVDLAQGREPDREGLRAFLERLEFGSLLHEFGLLESPKALEEAPWPPPEGAFVGFVLSRKEPMWADLLALAAARGGRVHQAPEPYKALRDLKEARGLLAKDLSVLALREGLGLPPGDDPMLLAYLLDPSNTTPEGVARRYGGEWTEEAGERAALSERLFANLWGRLEGEERLLWLYREVERPLSAVLAHMETTGVRLDVAYLRALSLEVAEEIARLEAEVFRLAGRPFNLNSRDQLERVLFDELGLPAIGKTEKTGKRSTSAAVLEALREAHPIVEKILQYRELTKLKSTYIDPLPDLIHPRTGRLHTRFNQTATATGRLSSSDPNLQNIPVRTPLGQRIRRAFIAEEGWLLVVLDYSQMELRVLAHLSGDENLIRVFQEGKDIHTQTASWMFGVPPEAVDPLMRRAAKTVNFGVLYGMSAHRLSQELSIPYEEAVAFIERYFQSFPKVRAWIEKTLEEGRRRGYVETLFGRRRYVPDLNARMKSVRGAAERMAFNMPVQGTAADLMKLAMVKLFPRLREMGARMLLQVHDELLLEAPQARAEEVAALAKEAMEKAYPLAVPLEVEVGIGEDWLSAKE
modifications: Mutant Taq polymerase
In the case of B1, the “extension of primers containing four mismatches in PCR” value (“extension … in PCR” for short) (four mismatch primers) is reported as “cannot”.

B2: M1: Taq mutant G84A, D144G, K314R, E520G, F598L, A608V, E742G; SEQ ID NO: 1 (protein)
chain: MRGMLPLFEPKGRVLLVDGHHLAYRTFHALKGLTTSRGEPVQAVYGFAKSLLKALKEDGDAVIVVFDAKAPSFRHEAYGGYKAARAPTPEDFPRQLALIKELVDLLGLARLEVPGYEADDVLASLAKKAEKEGYEVRILTADKGLYQLLSDRIHVLHPEGYLITPAWLWEKYGLRPDQWADYRALTGDESDNLPGVKGIGEKTARKLLEEWGSLEALLKNLDRLKPAIREKILAHMDDLKLSWDLAKVRTDLPLEVDFAKRREPDRERLRAFLERLEFGSLLHEFGLLESPKALEEAPWPPPEGAFVGFVLSRREPMWADLLALAAAAGGRVHRAPEPYKALRDLKEARGLLAKDLSVLALREGLGLPPGDDPMLLAYLLDPSNTTPEGVARRYGGEWTEEAGERAALSERLFANLWGRLEGEERLLWLYREVERPLSAVLAHMEATGVRLDVAYLRALSLEVAEEIARLEAEVFRLAGHPFNLNSRDQLERVLFDELGLPAIGKTEKTGKRSTSAAVLGALREAHPIVEKILQYRELTKLKSTYIDPLPDLIHPRTGRLHTRFNQTATATGRLSSSDPNLQNIPVRTPLGQRIRRAFIAEEGWLLVVLDYSQIELRVLAHLSGDENLIRVFQEGRDIHTETASWMFGVPREAVDPLMRRAAKTINFGVLYGMSAHRLSQELAIPYEEAQAFIERYFQSFPKVRAWIEKTLEEGRRRGYVETLFGRRRYVPDLEARVKSVRGAAERMAFNMPVQGTAADLMKLAMVKLFPRLEEMGARMLLQVHDELVLEAPKERAEAVARLAKEVMEGVYPLAVPLEVEVGIGEDWLSAKE
modifications: Mutant Thermus aquaticus DNA polymerase
For B2, the “kcat/Km relative to Taq wild type” value [3] was 14%.

B3: 3D1: third round clone, four mismatch extension; SEQ ID NO: 98 (protein)
chain: MAMLPLFEPKGRVLLVDGHHLAYRTFFALKGPTTSRGEPVQVVYGFAKSLLKALKEDGYKAVFVVFDAKAPSFRHKAYEAYRAGRAPTPEDFPRQLALIKELVDLLGFTRLEVPGYEADDVLATLAKKAEKEGYEVRILTADRGLYQLVSDRVAVLHPEGHLITPEWLWEKYGLRPEQWVDFRALVGDPSDNLPGVKGIGEKTALKLLKEWGSLENLLKNLDRVKPENVREKIKAHLEDLRLSLELSRVRTDLPLEVDLAQRREPDREGLRAFLERLEFGSLFHEFGLLESPKALEEAPWPPPEGAFVGFVLSRKEPMWADLLALAAARGGRVHRAPEPYKALRDLKEARGLLAKDLSVLALREGLGLPPGDDPMLLAYLLDPSNTTPEGVARRYGGEWTEEAGERAALSERLFANLWGRLEGEERLLWLYREVERPLSAVLAHMEATGVRLDVAYLRALSLEVAEEIARLEAEVFRLAGHPFNLNSRDQLEMVLFDELRLPALGKTQKTGKRSTSAAVLEALREAHPIVEKILQYRELTKLKSTYIDPLSDLIHPRTGRLHTRFNQTATATGRLSSSDPNLQNIPVRTPLGQRIRRAFIAEEGWLLVVLDYSQIELRVLAHLSGDENLIRVFQEGRDIHTETASWMFGVPREAVDPLMRRAAKTINFGVLYGMSAHRLSQELAIPYEEAQAFIERYFQSFPKVRAWIEKTLEEGRRRGYVETLFGRRRYVPDLEARVKSVREAAERMAFNMPVQGTAADLMKLAMVKLFPRLGETGARMLLQVHDELVLEAPKERAEAVARLAKEAMEGVYPLAVPLEVEVGIGEDWLSAKG
modifications: Mutant Taq polymerase
For B3, the “extension … in PCR” value (four mismatch primers) was “able to extend primers containing four mismatches” and the “extension … in PCR” value (four mismatch primers; listed as D1) was “can also extend four mismatched primers in PCR”.
